This note sets out measurements from patent US20090011937A1, “Use of Fungicides for Increasing the Quality and Optionally the Quantity of Oil-Plant Products” (priority 2006, published 2009).

Assay type in all cases: in vivo
For experiment [1], the system named is Oilseed rape. The experiment in a line: Alkaline-earth metal content (Ca, Mg) of oil, oilseed rape treated with metconazole, pressing with normal pressure (DIN EN 14538). To be noted: oil of rapeseed, Germany 2004/2005; spray autumn and spring, in each case 60 g active ingredient per ha; pressed under normal pressure; untreated 5.7. The protocol: (§1) Oilseed rape was grown in 2004/2005 in Germany under the usual conditions. In autumn 2004 (growth stage BBCH 14-16) and in spring 2005 (growth stage BBCH 31-51), some of the oilseed rape was treated by spraying with metconazole (employed in the form of the commercially available product Caramba®; application rate: in each case 60 g active ingredient per ha). For comparison purposes, the remainder of the oilseed rape remained untreated. The plants were harvested in summer 2005 (growth stage BBCH 92). The rapeseed was pressed with a press from Ökotec under normal pressure (nozzle 8, 40 rpm, temperature at the pressing head 60° C.), and the phosphorus content and the alkaline-earth metal content (Ca, Mg) of the resulting oil were determined in accordance with DIN EN 14107 and DIN EN 14538, respectively.

The test system of experiment [2] is Oilseed rape. Kind of experiment: Phosphorus content of oil, oilseed rape treated with metconazole, pressing with normal pressure (DIN EN 14107). To be noted: oil of rapeseed, Germany 2004/2005; spray autumn and spring, in each case 60 g active ingredient per ha; pressed under normal pressure; untreated 1.9. The protocol:
as §1

For experiment [3], the system named is Oilseed rape cv. "Trabant". The experiment in a line: Phosphorus content of oil, oilseed rape treated with metconazole or metconazole in combination with boscalid, pressing at high pressure (DIN EN 14107). To be noted: oil of rapeseed cv. Trabant, Bothkamp 2005/2006; metconazole 60 g/ha autumn and spring, boscalid 250 g/ha at anthesis; pressed under high pressure; untreated 5.0. How it is done:
Oilseed rape cv. “Trabant” was grown under the usual conditions in 2005/2006 in Germany at the Bothkamp site. In autumn 2005 (growth stage BBCH 16-18) and in spring 2006 (BBCH 31-51), some of the oilseed rape plants were treated by spraying with metconazole (employed in the form of the commercially available product Caramba®; application rate: in each case 60 g active ingredient per ha). Some other oilseed rape plants were furthermore additionally treated during anthesis (BBCH 65) by spraying with boscalid (employed in the form of the commercially available product Cantus®; application rate: 250 g active substance per ha). For comparison reasons, some of the rapeseed plants remained untreated. The plants were harvested in summer 2006 (growth stage BBCH 92). The rapeseed was pressed with a press from Ökotec under high pressure (nozzle 6, 70 rpm, temperature at the pressing head >70° C.), and the phosphorus content of the resulting oil was determined in accordance with DIN EN 14107.

Experiment [4] deals with Oilseed rape cv. "Trabant". Kind of experiment: Alkaline-earth metal content of oil, oilseed rape treated with metconazole, pressing with normal pressure and high pressure (DIN EN 14538). How it is done: Oilseed rape cv. “Trabant” was grown under the usual conditions in 2005/2006 in Germany at the Bothkamp site. In autumn 2005 (growth stage BBCH 16-18) and in spring 2006 (BBCH 31-51), some of the oilseed rape plants were treated by spraying with metconazole (employed in the form of the commercially available product Caramba®; application rate: in each case 60 g active ingredient per ha). For comparison reasons, the remainder of the rapeseed plants remained untreated. The plants were harvested in summer 2006 (growth stage BBCH 92). The rapeseed was pressed with a press from Ökotec and the alkaline-earth metal content (Ca, Mg) of the resulting oil was determined as specified in DIN EN 14538. Here, part of the rapeseed was pressed under normal pressure (nozzle 8, 40 rpm, temperature at the pressing head 60° C.) and another portion under high pressure (nozzle 6, 70 rpm, temperature at the pressing head >70° C.).

The subject of experiment [5] is Oilseed rape cv. "Lioness". The experiment in a line: Sulfur content of oil from treated oilseed rape (EN ISO 20884). The conditions noted are these: oil of rapeseed cv. Lioness, Britain 2005/2006; spray during anthesis; normal pressure; untreated 4. The protocol: Oilseed rape cv. “Lioness” was grown in 2005/2006 in Britain under the normal conditions. During anthesis (growth stage BBCH 61-65), the rapeseed plants were treated by spraying either with boscalid (employed in the form of the commercially available product Cantus®; application rate: 250 g active substance per ha), with boscalid in combination with dimoxystrobin (employed in the form of the commercially available product Pictor®; application rate: in each case 100 g active substance per ha), with prothioconazole (employed in the form of the commercially available product Proline®; application rate: 175 g active substance per ha) or with azoxystrobin (employed in the form of the commercially available product Amistar®; application rate: 200 g active substance per ha). For comparison reasons, some of the rapeseed plants remained untreated. The plants were harvested in summer 2006 (BBCH 92). The rapeseed was pressed with a press from Ökotec under normal pressure (nozzle 8, 40 rpm, temperature at the pressing head 60° C.), and the sulfur content of the oil obtained was determined as specified in EN ISO 20884.

Experiment [6] deals with Oilseed rape cv. "Lioness". The experiment in a line: Overall contamination of oil from treated oilseed rape (DIN EN 12662). To be noted: oil of rapeseed cv. Lioness, Britain 2005/2006; spray during anthesis (BBCH 61-65); normal pressure; untreated 33. How it is done:
Oilseed rape cv. “Lioness” was grown in 2005/2006 in Britain under the normal conditions. During anthesis (growth stage BBCH 61-65), the rapeseed plants were treated by spraying either with boscalid (employed in the form of the commercially available product Cantus®; application rate: 250 g active substance per ha), with boscalid in combination with dimoxystrobin (employed in the form of the commercially available product Pictor®; application rate: in each case 100 g active substance per ha), with prothioconazole (employed in the form of the commercially available product Proline®; application rate: 175 g active substance per ha) or with azoxystrobin (employed in the form of the commercially available product Amistar®; application rate: 200 g active substance per ha). For comparison reasons, some of the rapeseed plants remained untreated. The plants were harvested in summer 2006 (BBCH 92). The rapeseed was pressed with a press from Ökotec under normal pressure (nozzle 8, 40 rpm, temperature at the pressing head 60° C.), and the overall contamination of the oil obtained was determined as specified in DIN EN 12662.

Experiment [7] has as its system Oilseed rape cv. "Lioness". Kind of experiment: Acid content of oil, oilseed rape treated with boscalid or boscalid in combination with dimoxystrobin (DIN EN 14104). The conditions noted are these: oil of rapeseed cv. Lioness, Britain 2005/2006; spray during anthesis; normal pressure; untreated 0.41. How it is done:
Oilseed rape cv. “Lioness” was grown in 2005/2006 in Britain under the normal conditions. During anthesis (growth stage BBCH 61-65), the rapeseed plants were treated by spraying either with boscalid (employed in the form of the commercially available product Cantus®; application rate: 250 g active substance per ha) or with boscalid in combination with dimoxystrobin (employed in the form of the commercially available product Pictor®; application rate: in each case 100 g active substance per ha). For comparison reasons, some of the rapeseed plants remained untreated. The plants were harvested in summer 2006 (BBCH 92). The rapeseed was pressed with a press from Ökotec under normal pressure (nozzle 8, 40 rpm, temperature at the pressing head 60° C.), and the acid content of the oil obtained was determined as specified in DIN EN 14104.

For experiment [8], the system named is Oilseed rape cv. "Talent". Kind of experiment: Resistance to oxidation of oil, oilseed rape treated with boscalid or boscalid in combination with dimoxystrobin (DIN EN 14112). To be noted: oil of rapeseed cv. Talent, Tachenhausen 2005/2006; spray during anthesis; normal pressure; untreated 9.5. How it is done: Oilseed rape cv. “Talent” was grown in 2005/2006 under the usual conditions at the Tachenhausen site in Germany. During anthesis (growth stage BBCH 61-65), the oilseed rape plants were treated by spraying either with boscalid (employed in the form of the commercially available product Cantus®; application rate: 250 g active substance per ha) or with boscalid in combination with dimoxystrobin (employed in the form of the commercially available product Pictor®; application rate: in each case 100 g active ingredient per ha). For comparison reasons, some of the oilseed rape plants remained untreated. The plants were harvested in summer 2006 (BBCH 92). The rapeseed was pressed with a press from Ökotec under normal pressure (nozzle 8, 40 rpm, temperature at the pressing head 60° C.), and the resistance to oxidation of the oil obtained was determined as specified in DIN EN 14112.

Experiment [9] concerns Oilseed rape cv. "Talent". Kind of experiment: Iodine number of oil, oilseed rape treated with boscalid (EN 14111). The conditions noted are these: oil of rapeseed cv. Talent, Tachenhausen 2005/2006; boscalid 250 g/ha during anthesis; normal pressure; untreated 108. How it is done:
Oilseed rape cv. “Talent” was grown in 2005/2006 under the usual conditions at the Tachenhausen site in Germany. During anthesis (growth stage BBCH 61-65), the oilseed rape plants were treated by spraying with boscalid (employed in the form of the commercially available product Cantus®; application rate: 250 g active substance per ha). For comparison reasons, some of the oilseed rape plants remained untreated. The plants were harvested in summer 2006 (BBCH 92). The rapeseed was pressed with a press from Ökotec under normal pressure (nozzle 8, 40 rpm, temperature at the pressing head 60° C.), and the iodine number of the oil obtained was determined as specified in EN 14111.

In the case of `CC1(C)CCC(Cc2ccc(Cl)cc2)C1(O)Cn1cncn1` (stereo not drawn) [2 × metconazole, metconazole], in experiment [1], the “Alkaline-earth metal content (Ca + Mg)” value was found to be 3.9 mg/kg. Further, the Phosphorus content is recorded as less than 1 mg/kg in experiment [2] and 4.0 mg/kg in experiment [3]. Further, in experiment [4] (inferred from the more pronounced reduction of alkaline-earth metal content in high-pressure oil versus normal-pressure oil), the “Brittleness of the seed coat” value is recorded as “appears to reduce the brittleness of the seed coat”. Besides, the “Alkaline-earth metal content (Ca + Mg) - high pressure” value in [4] (oil of rapeseed cv. Trabant, Bothkamp 2005/2006, metconazole 60 g/ha autumn and spring, high pressure (nozzle 6, 70 rpm, >70° C.), untreated 9) is recorded as 5 mg/kg. Also, in [4] (oil of rapeseed cv. Trabant, Bothkamp 2005/2006, metconazole 60 g/ha autumn and spring, normal pressure (nozzle 8, 40 rpm, 60° C.), untreated 6), the “Alkaline-earth metal content (Ca + Mg) - normal pressure” value is on record as 4 mg/kg.
For the compound `CO/C=C(/C(=O)OC)c1ccccc1Oc1cc(Oc2ccccc2C#N)ncn1` [Azoxystrobin, azoxystrobin], the Sulfur content in experiment [5] came out at 2 mg/kg. Moreover, the Overall contamination in experiment [6] is 24 mg/kg.
Regarding `O=C(Nc1ccccc1-c1ccc(Cl)cc1)c1cccnc1Cl` [Boscalid, boscalid], in [5], the Sulfur content was 2 mg/kg. The Overall contamination in experiment [6] was 20 mg/kg. Moreover, the Acid number in [7] turned out to be 0.32 mg KOH/g. Besides, the “Resistance to oxidation at 110° C.” value in experiment [8] was 9.7 h. For the same compound, the Iodine number in experiment [9] came out at 105 g iodine per 100 g.
On to `OC(Cc1ccccc1Cl)(Cn1nc[nH]c1=S)C1(Cl)CC1` (stereo not drawn) [Prothioconazole, prothioconazole], for which the Sulfur content in [5] stood at 2 mg/kg. Moreover, in experiment [6], the Overall contamination was 22 mg/kg.
